According to patent US6566580B1, “Neurological disease model” (priority 1996, dated 2003):
Where “and” joins values, the source holds several entries; their conditions need not be identical. Identical values can stand only once.

What was measured:
[1] = tested on: synaptic transmission in the Schaffer collateral-commissural pathway; test: L-AP4 depression of synaptic transmission, field EPSP recordings in hippocampal CA1 slices; assay type: cell-based, mice; conditions: L-AP4 1 mM
Protocol: To investigate the possible functions of mGlu7 electrophysiological experiments are performed in the CA1 region of the hippocampus, a region rich in mGlu7. […] L-AP4 (1 mM) is therefore applied to wild-type and mGlu7^−/− mice. […] However, all three patterns are seen in both wild-type and mutant mice. On average there is no significance difference in the actions of L-AP4 between groups; the peak L-AP4 induced depressions for wild-type and mutant mice are 40±10% (n=15) and 33±10% (n=14), respectively (P>0.05). Furthermore, no statistically significant differences are seen in intrinsic or synaptic properties between wild-type and mutant mice. Also, paired-pulse facilitation is similar between both groups. Thus, the facilitation ratio obtained, using an interpulse interval of 50 ms, is 1.49±0.03 and 1.45±0.04 for wild-type (n=9) and mutant (n=9) mice, respectively (P>0.05).
Since certain members of the mGlu family have been implicated in the generation of LTP in area CA1, the ability of wild-type and mutant mice to support this form of synaptic plasticity is compared as follows. […]
There are no apparent differences in low frequency synaptic transmission between the two groups of mice. […] Statistical significance is determined using a repeated measures ANOVA test and unpaired Students t-tests. […]

[2] = tested on: synaptic transmission in the Schaffer collateral-commissural pathway; conditions: 1 mM L-AP4, Schaffer collateral-commissural pathway, literature; cited from earlier work
mGlu7 = mGlu7 (Rattus norvegicus, UniProt P35400); conditions: high concentrations of L-AP4, e.g. 1 mM, recombinant systems; cited from earlier work
[3] = tested on: mice (mGluR7 -/-, +/-, +/+); test: Pentylenetetrazol (PTZ)-induced seizures in mGluR7 knockout, heterozygote and wild-type mice; assay type: in vivo; conditions: PTZ 40 mg/kg i.p.
Protocol: Intraperitoneal (i.p.) injection of a normally subconvulsive dose of PTZ (40 mg/kg) induced seizures in 9 out of 9 homozygous mGluR7 knockout mice (age 9 months) as shown in the Table below.
This sensitivity to a subconvulsive dose of PTZ is not yet evident at age 6 weeks but clearly evident at age 10 weeks in mGluR7 homozygous but not in heterozygous littermates as shown in the table below.

mice (mGluR7 -/-, +/-) = test: EEG recording with surface electrodes before and after PTZ injection; assay type: in vivo; conditions: PTZ 40 mg/kg
Protocol: In addition, two mGluR7−/− and two mGluR7+/− mice were equipped with surface electrodes to record EEGs before and after injection of 40 mg/kg PTZ.

mGlu7, sequence (P35400 35-915): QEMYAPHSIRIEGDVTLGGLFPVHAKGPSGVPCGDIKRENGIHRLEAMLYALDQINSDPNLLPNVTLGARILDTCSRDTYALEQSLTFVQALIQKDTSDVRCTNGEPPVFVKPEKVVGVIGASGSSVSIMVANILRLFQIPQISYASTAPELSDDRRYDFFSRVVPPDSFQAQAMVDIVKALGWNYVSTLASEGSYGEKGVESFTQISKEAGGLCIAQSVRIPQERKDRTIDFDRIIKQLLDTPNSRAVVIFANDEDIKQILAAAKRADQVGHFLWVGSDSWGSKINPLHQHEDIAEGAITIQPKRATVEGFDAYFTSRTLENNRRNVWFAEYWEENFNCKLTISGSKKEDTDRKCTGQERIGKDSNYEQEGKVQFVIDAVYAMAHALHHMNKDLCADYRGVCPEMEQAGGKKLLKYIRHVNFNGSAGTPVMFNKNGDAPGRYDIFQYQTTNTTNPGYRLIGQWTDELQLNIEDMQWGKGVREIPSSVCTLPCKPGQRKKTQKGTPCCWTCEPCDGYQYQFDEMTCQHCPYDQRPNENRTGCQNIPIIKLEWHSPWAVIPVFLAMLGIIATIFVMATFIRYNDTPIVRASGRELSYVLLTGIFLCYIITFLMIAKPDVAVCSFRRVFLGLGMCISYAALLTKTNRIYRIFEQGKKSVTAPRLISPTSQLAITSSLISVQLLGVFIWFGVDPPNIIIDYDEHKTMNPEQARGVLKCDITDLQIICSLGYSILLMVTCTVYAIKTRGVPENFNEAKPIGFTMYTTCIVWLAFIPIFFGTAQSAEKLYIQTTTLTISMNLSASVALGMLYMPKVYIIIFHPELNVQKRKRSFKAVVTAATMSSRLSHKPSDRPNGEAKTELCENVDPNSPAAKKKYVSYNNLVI

SMILES | peak L-AP4 induced depression ([1]; mutant (mGlu7 -/-) mice, n=14) | peak L-AP4 induced depression ([1]; wild-type mice, n=15) | effect on synaptic transmission [2] | activation of mGlu7 (mGlu7) | mice with induced seizures ([3]; homozygous mGluR7 knockout mice, age 9 months) | Clonic activity ([3]; mGluR7 +/- heterozygote mice, per animal) | mice with clonic seizures ([3]; mGluR7+/- mice) | Clonic activity ([3]; mGluR7 -/- mice, age 6 weeks, per animal) | Clonic activity ([3]; mGluR7 -/- mice, age 10 weeks, per animal) | Clonic activity ([3]; mGluR7 -/- mice, per animal) | Exitus ([3]; mGluR7 -/- mice, per animal) | Tonic activity ([3]; mGluR7 -/- mice, per animal) | mice with induced seizures ([3]; wild type mice (mGluR7+/+)) | seizures following injection ([3]; wild type non-transgenic mice tested in parallel with the 6 and 10 week experiments) | EEG after PTZ injection (mice (mGluR7 -/-, +/-); homozygous mGluR7 knockout mice) | EEG after PTZ injection (mice (mGluR7 -/-, +/-); mGluR7+/- mice)
N[C@@H](CCP(=O)(O)O)C(=O)O [L-AP4, (S)-2-amino-4-phosphonobutanoate] | 33±10% | 40±10% | can depress synaptic transmission | can activate mGlu7 | – | – | – | – | – | – | – | – | – | – | – | –
C1CCc2nnnn2CC1 [PTZ, Pentylenetetrazol] | – | – | – | – | 9 out of 9 | 3′ | 1 out of 9 | 6′ | 2′ (2×) and 4′ (4×) | 2′ and 15′ | 4′ (2×) and 12′ and 11′ and 6′ | 3′ (2×) and 12′ and 2′ and 4′ and 6′ | None of 9 | no seizures | typical signals reminiscent of seizure activity | no such activity developed
